Where “and” joins values, the source holds several entries; their conditions need not be identical. Equal values may be shown once.
Experiment: xn = mol fraction of the nth substance listed

CC(C)CC(C)C + CCCCCCCCCCCC
101 kPa, x1 = 0.5
Settings | viscosity [mPa·s]
298 K | 0.7489
318 K | 0.5809

CC(C)c1cc(C(C)C)cc(C(C)C)c1 + CCCCCCCCCCCC
viscosity [mPa·s], 102 kPa
Settings | x1 = 0.0997 | x1 = 0.2002 | x1 = 0.3009 | x1 = 0.4002 | x1 = 0.5003 | x1 = 0.6001 | x1 = 0.7001 | x1 = 0.8002 | x1 = 0.8999
293.15 K | 1.57 | 1.67 | 1.8 | 1.94 | 2.14 | 2.37 | 2.67 | 3.05 | 3.51
303.15 K | 1.31 | 1.39 | 1.48 | 1.59 | 1.73 | 1.89 | 2.09 | 2.35 | 2.66
313.15 K | 1.11 | 1.17 | 1.24 | 1.32 | 1.42 | 1.54 | 1.69 | 1.86 | 2.08
323.15 K | 0.956 | 1 | 1.05 | 1.12 | 1.19 | 1.28 | 1.39 | 1.52 | 1.67

CCOC(=O)CCl + CCCCCCCCCCCC
viscosity [mPa·s], 101.33 kPa
Settings | x1 = 0.0961 | x1 = 0.2041 | x1 = 0.3012 | x1 = 0.4005 | x1 = 0.5029 | x1 = 0.6026 | x1 = 0.7029 | x1 = 0.804 | x1 = 0.9017
298.15 K | 1.25 | 1.197 | 1.159 | 1.14 | 1.127 | 1.116 | 1.105 | 1.101 | 1.099
303.15 K | 1.149 | 1.094 | 1.062 | 1.041 | 1.027 | 1.029 | 1.015 | 0.994 | 0.985
308.15 K | 1.054 | 1.019 | 0.979 | 0.96 | 0.946 | 0.94 | 0.93 | 0.927 | 0.929

COC(=O)c1ccccc1 + CCCCCCCCCCCC
101 kPa
Settings | viscosity [mPa·s]
298.15 K, x2 = 0.082 | 1.662
298.15 K, x2 = 0.1173 | 1.604
298.15 K, x2 = 0.144 | 1.569
298.15 K, x2 = 0.1894 | 1.521
298.15 K, x2 = 0.2155 | 1.489
298.15 K, x2 = 0.2495 | 1.456
298.15 K, x2 = 0.2908 | 1.424
298.15 K, x2 = 0.3295 | 1.395
298.15 K, x2 = 0.3708 | 1.367
298.15 K, x2 = 0.4625 | 1.325
298.15 K, x2 = 0.5803 | 1.295
298.15 K, x2 = 0.6336 | 1.286
298.15 K, x2 = 0.6963 | 1.278
298.15 K, x2 = 0.7551 | 1.279
298.15 K, x2 = 0.837 | 1.291
298.15 K, x2 = 0.9197 | 1.314
308.15 K, x2 = 0.0354 | 1.452
308.15 K, x2 = 0.0681 | 1.412
308.15 K, x2 = 0.0984 | 1.376
308.15 K, x2 = 0.126 | 1.347
308.15 K, x2 = 0.1623 | 1.311
308.15 K, x2 = 0.1958 | 1.282
308.15 K, x2 = 0.2384 | 1.248
308.15 K, x2 = 0.2693 | 1.226
308.15 K, x2 = 0.3062 | 1.203
308.15 K, x2 = 0.3476 | 1.182
308.15 K, x2 = 0.3895 | 1.164
308.15 K, x2 = 0.4361 | 1.146
308.15 K, x2 = 0.485 | 1.131
308.15 K, x2 = 0.5382 | 1.12
308.15 K, x2 = 0.5886 | 1.112
308.15 K, x2 = 0.65 | 1.108
308.15 K, x2 = 0.7204 | 1.107
308.15 K, x2 = 0.7849 | 1.11
308.15 K, x2 = 0.8845 | 1.124
318.15 K, x2 = 0.0445 | 1.219
318.15 K, x2 = 0.0506 | 1.213
318.15 K, x2 = 0.0779 | 1.183
318.15 K, x2 = 0.1097 | 1.152
318.15 K, x2 = 0.1388 | 1.126
318.15 K, x2 = 0.1737 | 1.097
318.15 K, x2 = 0.2067 | 1.072
318.15 K, x2 = 0.2449 | 1.048
318.15 K, x2 = 0.2814 | 1.025
318.15 K, x2 = 0.3256 | 1.001
318.15 K, x2 = 0.3648 | 0.983
318.15 K, x2 = 0.4153 | 0.964
318.15 K, x2 = 0.4635 | 0.95
318.15 K, x2 = 0.5194 | 0.938
318.15 K, x2 = 0.5726 | 0.931
318.15 K, x2 = 0.6372 | 0.926
318.15 K, x2 = 0.7 | 0.924
318.15 K, x2 = 0.7739 | 0.929
318.15 K, x2 = 0.8468 | 0.938

c1ccc2c(c1)CCCC2 + CCCCCCCCCCCC
323.15 K, 100 kPa
Settings | viscosity
x1 = 0.399 | 0.965 mPa·s and 0.964 mPa·s
x1 = 0.714 | 1.06 mPa·s

CC(C)CC(C)C + CCCCCCCCCCCCCCCC
101 kPa, x1 = 0.5
Settings | viscosity [mPa·s]
298 K | 1.314
318 K | 0.9631

CC(C)c1cc(C(C)C)cc(C(C)C)c1 + CCCCCCCCCCCCCCCC
viscosity [mPa·s], 102 kPa
Settings | x1 = 0.1209 | x1 = 0.1996 | x1 = 0.3001 | x1 = 0.3994 | x1 = 0.5003 | x1 = 0.6004 | x1 = 0.6998 | x1 = 0.7999 | x1 = 0.8993
293.15 K | 3.41 | 3.37 | 3.35 | 3.34 | 3.37 | 3.43 | 3.53 | 3.67 | 3.86
303.15 K | 2.7 | 2.67 | 2.64 | 2.63 | 2.64 | 2.66 | 2.71 | 2.79 | 2.9
313.15 K | 2.19 | 2.16 | 2.13 | 2.12 | 2.12 | 2.13 | 2.15 | 2.19 | 2.26
323.15 K | 1.81 | 1.79 | 1.76 | 1.75 | 1.74 | 1.74 | 1.75 | 1.77 | 1.81

CC(C)OCCO + CCCCCCCCCCO
viscosity [mPa·s], 101 kPa
Settings | 298.15 K | 303.15 K | 308.15 K
x1 = 0.0501 | 11.21 | 9.204 | 7.728
x1 = 0.1066 | 10.53 | 8.634 | 7.235
x1 = 0.1507 | 10.01 | 8.194 | 6.853
x1 = 0.253 | 8.94 | 7.311 | 6.115
x1 = 0.3119 | 8.302 | 6.783 | 5.668
x1 = 0.3516 | 7.856 | 6.41 | 5.352
x1 = 0.4159 | 7.17 | 5.836 | 4.871
x1 = 0.5018 | 6.315 | 5.145 | 4.3
x1 = 0.6016 | 5.388 | 4.398 | 3.692
x1 = 0.7014 | 4.518 | 3.715 | 3.149
x1 = 0.8012 | 3.69 | 2.991 | 2.564
x1 = 0.854 | 3.267 | 2.661 | 2.308
x1 = 0.9003 | 2.873 | 2.385 | 2.097
x1 = 0.9507 | 2.516 | 2.166 | 1.948

CCCCOCCO + CCCCCCCCCCO
101 kPa
Settings | viscosity [mPa·s]
303.15 K, x1 = 0.1024 | 8.155
308.15 K, x1 = 0.7009 | 3.195

CC(C)OCCO + CCCCCCCCO
viscosity [mPa·s], 101 kPa
Settings | 298.15 K | 303.15 K | 308.15 K
x1 = 0.0517 | 7.288 | 6.066 | 5.217
x1 = 0.1016 | 6.902 | 5.729 | 4.938
x1 = 0.1531 | 6.517 | 5.401 | 4.671
x1 = 0.2013 | 6.178 | 5.106 | 4.415
x1 = 0.2524 | 5.832 | 4.817 | 4.162
x1 = 0.3033 | 5.49 | 4.523 | 3.906
x1 = 0.4 | 4.893 | 4.027 | 3.482
x1 = 0.5012 | 4.314 | 3.556 | 3.086
x1 = 0.618 | 3.706 | 3.07 | 2.691
x1 = 0.7017 | 3.325 | 2.776 | 2.459
x1 = 0.8102 | 2.849 | 2.418 | 2.155
x1 = 0.8492 | 2.721 | 2.322 | 2.091
x1 = 0.9046 | 2.477 | 2.157 | 1.986
x1 = 0.9472 | 2.36 | 2.064 | 1.911

CCCCCCCCN(CCCCCCCC)CCCCCCCC + CCCCCCCCO
Settings | viscosity [mPa·s]
298 K, 101.3 kPa, x1 = 0.00811 | 7.341

CCCCOCCO + CCCCCCCCO
viscosity [mPa·s], 101 kPa
Settings | 298.15 K | 303.15 K | 308.15 K
x1 = 0.6004 | 3.885 | – | 2.965
x1 = 0.8027 | – | 2.825 | 2.545

c1ccc2c(c1)CCCC2 + CCCCCCCCO
viscosity [mPa·s], 100 kPa
Settings | x1 = 0.0993 | x1 = 0.1995 | x1 = 0.2994 | x1 = 0.3997 | x1 = 0.4996 | x1 = 0.5996 | x1 = 0.6996 | x1 = 0.7994 | x1 = 0.8994
293.15 K | 7.58 | 6.37 | 5.34 | 4.49 | 3.8 | 3.25 | 2.83 | 2.53 | 2.31
298.15 K | 6.37 | 5.38 | 4.55 | 3.86 | 3.3 | 2.85 | 2.51 | 2.25 | 2.09
303.15 K | 5.39 | 4.59 | 3.92 | 3.35 | 2.89 | 2.52 | 2.22 | 2.01 | 1.88
308.15 K | 4.61 | 3.95 | 3.39 | 2.92 | 2.54 | 2.23 | 1.99 | 1.81 | 1.7
313.15 K | 3.95 | 3.42 | 2.97 | 2.58 | 2.26 | 2 | 1.79 | 1.64 | 1.55
318.15 K | 3.42 | 2.99 | 2.61 | 2.29 | 2.02 | 1.8 | 1.63 | 1.51 | 1.43
323.15 K | 2.96 | 2.61 | 2.3 | 2.03 | 1.81 | 1.62 | 1.48 | 1.37 | 1.32

CCCCCCCCN(CCCCCCCC)CCCCCCCC + CCCCCCO
Settings | viscosity [mPa·s]
298 K, 101.3 kPa, x1 = 0.00638 | 4.722
